Columns and labels:
EGFR del746-750 T790M = target: T1, EGFR del746-750 T790M (Homo sapiens, UniProt P00533, DEL746-750/T790M); test: EGFR del746-750 T790M biochemical assay (Caliper mobility shift); details: 5 μM ATP, 30 min, room temperature; apparent Ki (Morrison) converted by Cheng-Prusoff, Km of ATP 2.1 μM; read-out: EGFR(T790M/d746-750) Ki
T1 construct: purchased Carna Biosciences 08-528

[1] = target: T2, phosphor-EGFR in H1975(L585R/T790M) mutant EGFR expressing cells (Homo sapiens, UniProt P00533, L858R/T790M); test: H1975 pEGFR MSD cellular assay; format: cell-based; details: NCI-H1975 cells, serum starved, 1 hour compound incubation, pEGFR Tyr1068 MSD
T2 construct: host or cells: NCI-H1975
Description: H1975 pEGFR MSD Cellular Assays Background:
These assays are intended for determining cellular. […] (Meso Scale Discovery Catalog# N31CB-1).
All cell culture reagents were purchased from Invitrogen/Gibco. Cells are cultured at 37° C. at 5% CO2 and split as recommended by ATCC.
Cell Plating and Serum Starvation:
After six hours, culture medium is aspirated and replaced with serum-free culture medium. Cells are then incubated with the serum-free medium overnight at 37° C. and 5% CO2.
The following day, test compounds are serially diluted in dimethyl sulfoxide (DMSO) and added to cells in serum free medium (final DMSO concentration 0.5%). Assay plates are then incubated for 1 hour at 37° C. and 5% CO2. Following 1 hour of compound incubation cells are then lysed and processed as per the MSD pEGFR assay kit protocol. Cell lysates are added to assay plates pre-coated with antibodies against phosphorylated EGFR. Phosphorylated EGFR in samples are allowed to bind to the capture antibodies overnight at 4° C. The detection antibody (anti-total EGFR, labeled with an electrochemiluminescent SULFO-TAG) is added to the bound lysate and incubated for 1 hour at room temperature. The MSD Read Buffer is added such that when a voltage is applied to the plate electrodes, the labels bound to the electrode surface emit light. The MSD Sector Instrument measures the intensity of the light, and quantitatively measures the amount of phosphorylated-EGFR in the sample. Percent inhibition of EGFR phosphorylation by varying concentrations of test compounds is calculated relative to untreated controls. EC50 values are calculated using the 4 parameter logistic nonlinear regression dose-response model.

T1 sequence (P00533 with tags, fused parts or gaps DEL746-750/T790M limits assumed): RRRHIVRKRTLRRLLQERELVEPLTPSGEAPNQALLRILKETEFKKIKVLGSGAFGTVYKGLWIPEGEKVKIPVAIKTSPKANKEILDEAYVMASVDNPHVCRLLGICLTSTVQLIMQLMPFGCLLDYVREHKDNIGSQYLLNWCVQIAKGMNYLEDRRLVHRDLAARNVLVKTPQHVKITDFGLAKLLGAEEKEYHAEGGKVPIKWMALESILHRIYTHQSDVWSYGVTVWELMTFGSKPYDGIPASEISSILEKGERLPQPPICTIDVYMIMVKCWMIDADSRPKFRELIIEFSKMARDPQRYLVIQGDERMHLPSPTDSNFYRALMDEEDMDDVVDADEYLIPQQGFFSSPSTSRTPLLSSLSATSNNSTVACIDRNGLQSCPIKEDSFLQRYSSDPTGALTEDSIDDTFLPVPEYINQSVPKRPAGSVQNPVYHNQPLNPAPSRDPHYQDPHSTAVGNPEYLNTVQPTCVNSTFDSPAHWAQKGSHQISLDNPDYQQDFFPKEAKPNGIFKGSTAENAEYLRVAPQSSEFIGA
T2 sequence (P00533 25-1210 T790M/L858R): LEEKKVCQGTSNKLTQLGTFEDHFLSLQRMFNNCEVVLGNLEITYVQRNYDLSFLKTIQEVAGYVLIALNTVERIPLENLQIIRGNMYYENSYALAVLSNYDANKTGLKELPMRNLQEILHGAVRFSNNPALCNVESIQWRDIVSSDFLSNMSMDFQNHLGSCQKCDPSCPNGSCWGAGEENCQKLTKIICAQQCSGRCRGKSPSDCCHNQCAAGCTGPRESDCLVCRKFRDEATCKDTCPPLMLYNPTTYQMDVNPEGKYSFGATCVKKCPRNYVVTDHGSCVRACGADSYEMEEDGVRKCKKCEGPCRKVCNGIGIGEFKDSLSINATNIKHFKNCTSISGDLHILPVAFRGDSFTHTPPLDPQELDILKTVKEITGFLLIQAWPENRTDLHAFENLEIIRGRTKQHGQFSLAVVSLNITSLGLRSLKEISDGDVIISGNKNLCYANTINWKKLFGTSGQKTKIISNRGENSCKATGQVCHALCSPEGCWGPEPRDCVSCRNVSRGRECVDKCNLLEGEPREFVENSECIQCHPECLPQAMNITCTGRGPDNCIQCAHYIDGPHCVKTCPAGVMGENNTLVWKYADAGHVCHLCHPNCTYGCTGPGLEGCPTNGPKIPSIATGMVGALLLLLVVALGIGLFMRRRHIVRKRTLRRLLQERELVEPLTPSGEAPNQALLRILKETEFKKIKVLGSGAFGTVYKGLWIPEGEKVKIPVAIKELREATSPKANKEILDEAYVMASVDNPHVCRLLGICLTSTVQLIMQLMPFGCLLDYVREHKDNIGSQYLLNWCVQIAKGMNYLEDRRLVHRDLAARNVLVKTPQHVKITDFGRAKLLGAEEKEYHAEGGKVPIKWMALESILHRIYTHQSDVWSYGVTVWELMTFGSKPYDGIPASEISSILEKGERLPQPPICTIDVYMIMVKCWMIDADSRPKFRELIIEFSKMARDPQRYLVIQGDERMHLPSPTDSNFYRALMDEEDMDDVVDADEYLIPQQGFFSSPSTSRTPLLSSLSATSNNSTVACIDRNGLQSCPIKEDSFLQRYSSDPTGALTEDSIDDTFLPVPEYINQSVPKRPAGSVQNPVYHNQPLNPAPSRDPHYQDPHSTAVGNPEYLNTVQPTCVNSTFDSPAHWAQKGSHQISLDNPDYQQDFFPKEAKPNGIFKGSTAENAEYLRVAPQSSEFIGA

| SMILES | Ki (EGFR del746-750 T790M) | EC50 [1] |
| --- | --- | --- |
| CCC(C)n1cc(C(=O)NC2CCOC2)c2cnc(Nc3ccnc(N4CCC(O)C(C)(C)C4)n3)cc21 (mixture of isomers) [Example 373, 1-(sec-butyl)-6-((2-(4-hydroxy-3,3-dimethylpiperidin-1-yl)pyrimidin-4-yl)amino)-N-(tetrahydrofuran-3-yl)-1H-pyrrolo[3,2-c]pyridine-3-carboxamide] | 0.00444 µM | 0.0673 µM |
| CCC(C)n1cc(C(=O)NC2CCOCC2)c2cnc(Nc3ccnc(N4CCC(O)C(C)(C)C4)n3)cc21 (mixture of isomers) [Example 383, 1-(sec-butyl)-6-((2-(4-hydroxy-3,3-dimethylpiperidin-1-yl)pyrimidin-4-yl)amino)-N-(tetrahydro-2H-pyran-4-yl)-1H-pyrrolo[3,2-c]pyridine-3-carboxamide] | 0.00281 µM | 0.0347 µM |
| C[C@H](n1c([C@@H](C)O)nc2cnc(Nc3ccnc(N4CCC(O)C(F)C4)n3)cc21)C(F)(F)F (mixture of isomers) [Example 296, cis-3-Fluoro-1-{4-[2-((R)-1-hydroxyethyl)-1-((S)-2,2,2-trifluoro-1-methylethyl)-1H-imidazo[4,5-c]pyridin-6-ylamino]pyrimidin-2-yl}piperidin-4-ol] | 0.00504 µM | 0.189 µM |
| CC(C)n1c(C2CCCO2)nc2cnc(Nc3ccnc(-c4cnn(S(=O)(=O)C5CC5)c4)n3)cc21 (racemic) [Example 565, (±)-[2-(1-Cyclopropanesulfonyl-1H-pyrazol-4-yl)-pyrimidin-4-yl]-[1-isopropyl-2-(tetrahydro-furan-2-yl)-1H-imidazo[4,5-c]pyridin-6-yl]amine] | – | 1.16 µM |
| CCNC(=O)c1cn(C(C)CC)c2cc(Nc3ccnc(N4CC[C@@H](O)[C@@H](F)C4)n3)ncc12 (single isomer, unassigned) [Example 369] | 0.00547 µM | 0.239 µM |
| CCC(C)n1cc(C(=O)NC2CCOCC2)c2cnc(Nc3ccnc(N4CC[C@@H](OC)[C@@H](F)C4)n3)cc21 (single isomer, unassigned) [Example 376] | 0.00288 µM | 0.0145 µM |
| CCC(C)n1cc(C(=O)NC2CCOCC2)c2cnc(Nc3ccnc(-c4cnn(S(=O)(=O)C5CC5)c4)n3)cc21 (single isomer, unassigned; (-)) [Example 322, (−)-1-(sec-butyl)-6-((2-(1-(cyclopropylsulfonyl)-1H-pyrazol-4-yl)pyrimidin-4-yl)amino)-N-(tetrahydro-2H-pyran-4-yl)-1H-pyrrolo[3,2-c]pyridine-3-carboxamide] | 0.00134 µM | 0.0609 µM |
| COC1CCN(c2nccc(Nc3cc4c(cn3)nc(C)n4C(C)C)n2)CC1 [Example 5, (1-Isopropyl-2-methyl-1H-imidazo[4,5-c]pyridin-6-yl)-[2-(4-methoxypiperidin-1-yl)pyrimidin-4-yl]amine] | 0.0477 µM | 0.871 µM |
| COC1CCN(c2nccc(Nc3cc4c(cn3)nc(COCCN(C)C)n4C(C)C)n2)CC1 [Example 8, [2-(2-Dimethylaminoethoxymethyl)-1-isopropyl-1H-imidazo[4,5-c]pyridin-6-yl]-[2-(4-methoxypiperidin-1-yl)pyrimidin-4-yl]amine] | 0.106 µM | 0.585 µM |
| COC1CCN(c2nccc(Nc3cc4c(cn3)ncn4C3CCCC3)n2)CC1 [Example 26, (1-Cyclopentyl-1H-imidazo[4,5-c]pyridin-6-yl)-[2-(4-methoxy-piperidin-1-yl)-pyrimidin-4-yl]amine] | 0.0252 µM | 1.19 µM |
| CC(C)n1cc(C(N)=O)c2cnc(Nc3ccnc(-c4cnn(S(=O)(=O)C5CC5)c4)n3)cc21 [Example 51, 6-((2-(1-(Cyclopropylsulfonyl)-1H-pyrazol-4-yl)pyrimidin-4-yl)amino)-1-isopropyl-1H-pyrrolo[3,2-c]pyridine-3-carboxamide] | – | 0.181 µM |
| Cc1nc2cnc(Nc3ccnc(-c4cnn(S(=O)(=O)C5CC5)c4)n3)cc2n1C(C)C [Example 52, N-(2-(1-(Cyclopropylsulfonyl)-1H-pyrazol-4-yl)pyrimidin-4-yl)-1-isopropyl-2-methyl-1H-imidazo[4,5-c]pyridin-6-amine] | 0.0018 µM | 0.254 µM |
| COc1ccc(-c2nccc(Nc3cc4c(cn3)ncn4C(C)C)n2)cn1 [Example 54, 1-Isopropyl-N-(2-(6-methoxypyridin-3-yl)pyrimidin-4-yl)-1H-imidazo[4,5-c]pyridin-6-amine] | – | 3.57 µM |
| CCNC(=O)c1cn(C(C)C)c2cc(Nc3ccnc(N4CCC(OC)CC4)n3)ncc12 [Example 57, N-Ethyl-1-isopropyl-6-((2-(4-methoxypiperidin-1-yl)pyrimidin-4-yl)amino)-1H-pyrrolo[3,2-c]pyridine-3-carboxamide] | 0.0202 µM | 0.236 µM |
| COC1CCN(c2nccc(Nc3cc4c(cn3)c(C#N)cn4C(C)C)n2)CC1 [Example 58, 1-Isopropyl-6-((2-(4-methoxypiperidin-1-yl)pyrimidin-4-yl)amino)-1H-pyrrolo[3,2-c]pyridine-3-carbonitrile] | 0.0609 µM | 1.41 µM |
| COCC(C)(C)n1c(C)nc2cnc(Nc3ccnc(N4CCC(OC)CC4)n3)cc21 [Example 164, [1-(2-Methoxy-1,1-dimethylethyl)-2-methyl-1H-imidazo[4,5-c]pyridin-6-yl]-[2-(4-methoxypiperidin-1-yl)pyrimidin-4-yl]amine] | – | 4.71 µM |
| CC(C)n1cc(C2CNC(=O)C2)c2cnc(Nc3ccnc(-c4cnn(S(=O)(=O)C5CC5)c4)n3)cc21 (stereo not shown) [Example 256, 4-(6-(2-(1-(Cyclopropylsulfonyl)-1H-pyrazol-4-yl)pyrimidin-4-ylamino)-1-isopropyl-1H-pyrrolo[3,2-c]pyridin-3-yl)pyrrolidin-2-one] | – | 1.05 µM |
| COC1(CN)CCN(c2nccc(Nc3cc4c(cn3)nc(C)n4C(C)C)n2)CC1 [Example 271, [2-(4-Aminomethyl-4-methoxypiperidin-1-yl)pyrimidin-4-yl](1-isopropyl-2-methyl-1H-imidazo[4,5-c]pyridin-6-yl)amine] | – | 5.75 µM |
| CC(C)n1c(OCCO)nc2cnc(Nc3ccnc(-c4cnn(S(=O)(=O)C5CC5)c4)n3)cc21 [Example 282, 2-{6-[2-(1-Cyclopropanesulfonyl-1H-pyrazol-4-yl)pyrimidin-4-ylamino]-1-isopropyl-1H-imidazo[4,5-c]pyridin-2-yloxy}ethanol] | – | 0.414 µM |
| CC(C)n1cc(C(=O)NC2COC2)c2cnc(Nc3ccnc(-c4cnn(S(=O)(=O)N(C)C)c4)n3)cc21 [Example 378, 6-((2-(1-(N,N-dimethylsulfamoyl)-1H-pyrazol-4-yl)pyrimidin-4-yl)amino)-1-isopropyl-N-(oxetan-3-yl)-1H-pyrrolo[3,2-c]pyridine-3-carboxamide] | – | 0.177 µM |
| Cc1nc2cnc(Nc3ccnc(-c4cnn(CC5CC5)c4)n3)cc2n1C(C)C [Example 395, N-(2-(1-(cyclopropylmethyl)-1H-pyrazol-4-yl)pyrimidin-4-yl)-1-isopropyl-2-methyl-1H-imidazo[4,5-c]pyridin-6-amine] | – | 1.34 µM |
| COC1(CO)CCN(c2nccc(Nc3cc4c(cn3)c(-c3cnn(C(C)(C)C(N)=O)c3)cn4C(C)C)n2)CC1 [Example 445, 2-(4-(6-(2-(4-(hydroxymethyl)-4-methoxypiperidin-1-yl)pyrimidin-4-ylamino)-1-isopropyl-1H-pyrrolo[3,2-c]pyridin-3-yl)-1H-pyrazol-1-yl)-2-methylpropanamide] | – | 0.831 µM |
| O=S(=O)(C1CC1)n1cc(-c2nccc(Nc3cc4c(cn3)nc(CO)n4-c3ccccc3)n2)cn1 [Example 475, (6-(2-(1-(cyclopropylsulfonyl)-1H-pyrazol-4-yl)pyrimidin-4-ylamino)-l-phenyl-1H-imidazo[4,5-c]pyridin-2-yl)methanol] | – | 1.81 µM |
| CC1(C)COCc2nc3cnc(Nc4ccnc(-c5cnn(S(=O)(=O)C6CC6)c5)n4)cc3n21 [Example 538, [2-(1-Cyclopropanesulfonyl-1H-pyrazol-4-yl)-pyrimidin-4-yl]-(4,4-dimethyl-3,4-dihydro-1H-2-oxa-4a,7,9-triazafluoren-6-yl)amine] | – | 0.838 µM |
| C[C@H](n1c([C@@H](C)O)nc2cnc(Nc3ccnc(-c4cnn(S(=O)(=O)C5CC5)c4)n3)cc21)C(F)(F)F [Example 572, (R)-1-[6-[2-(1-Cyclopropanesulfonyl-1H-pyrazol-4-yl)-pyrimidin-4-ylamino]-1-((S)-2,2,2-trifluoro-1-methylethyl)-1H-imidazo[4,5-c]pyridin-2-yl]-ethanol] | – | 0.167 µM |
| CCC(C)n1cc(C(=O)NCCO)c2cnc(Nc3ccnc(-c4cnn(S(=O)(=O)C5CC5)c4)n3)cc21 (stereo not shown) [Example 703] | 0.0025 µM | – |
| CCC(C)n1cc(C(=O)NCC(F)(F)F)c2cnc(Nc3ccnc(-c4cnn(S(=O)(=O)C5CC5)c4)n3)cc21 (stereo not shown) [Example 704] | 0.00335 µM | – |
| CCC(C)n1cc(C(=O)NC2CCC(O)CC2)c2cnc(Nc3ccnc(-c4cnn(S(=O)(=O)C5CC5)c4)n3)cc21 (stereo not shown) [Example 705] | 0.00237 µM | – |
